The values below come from patent US20250026721A1, “COMPOUNDS AND METHODS FOR MODULATING RAS-PI3K” (Vividion Therapeutics, Inc., priority 2023, published 2025).

pIC50: −log10 of the molar value.

Assay [1] has as its system pAKT(S473) in FaDu cell line. The assay can be described thus: In vitro Phospho-AKT(S473) HTRF analysis in FaDu cells. Type of assay: cell-based. The note with it: Homo sapiens, 0.5 h; for pIC50: FaDu cells, 30 minutes at 37° C.; for Emax: FaDu, read-out: FaDu pAKT Imax % control. The protocol: Example 5. In Vitro Phosgho-AKT(S473) Analysis
Functional activity of the compounds to inhibit pAKT were assessed in FaDu or H358 cell lines as indicated below.
• Complete Media • FBS, Corning catalog #35-010-CV • Anti-Anti, Gibco catalog #15240-062 • 96 well plate, Corning catalog #3610 • TrypLE, Gibco catalog #12604013 • Phospho-AKT(S473) HTRF kit, Cisbio catalog #64AKSPET
Cells were detached from the tissue culture flask with TrypLE. The cells were pelleted at 500×g for 5 min, TrypLe was removed and then resuspended in the necessary volume of media+1% FBS to give the appropriate cell density (17,500 cells/mL for FaDu; 20,000 cells/mL for H358). 100 μL of cell suspension/well was dispensed into the 96-well plate while keeping the outer wells of the plate free of cells and filled with PBS to prevent evaporation of interior wells. The plate was incubated at 37° C. and allowed to adhere overnight. The cells were treated with a dose response of compound and incubated at 37° C. for 30 minutes. The cells were then processed and pAKT(S473) levels were assessed following the specifications of the Cisbio HTRF kit.
(In TR-FRET formats the signal depends on donor and acceptor labels being close together.)

Assay [2] has as its target T1, PIK3CA (Homo sapiens, UniProt P42336).
T1 construct: endogenous in cells; host or cells: Jurkat cell lysate
The assay can be described thus: In vitro ELISA target engagement assay for PIK3CA in Jurkat cellular lysate (competition with PIK3CA Biotin Probe). The class given is binding. To be noted: 1 hour at rt, then 500 nM PIK3CA Biotin Probe, read-out: Elisa Target Engagement Assay (TE50). A digest of the protocol:
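Competition format in Jurkat lysate: compound (serial dilutions, top 200 μM) for 1 h at rt, then 500 nM final biotinylated PIK3CA probe for 1 h at rt. Sandwich ELISA with capture antibody and Neutravidin-HRP luminescence read-out measured probe-labelled PIK3CA, giving TE50.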
On the technique in general: ELISA stands for enzyme-linked immunosorbent assay.

Assay [3] concerns the target T2, PIK3CA_C242 (Homo sapiens, UniProt P42336).
T2 construct: endogenous in cells; host or cells: Jurkat cell lysate
Briefly: Proteomic TE50 (IA-DTB / TMT mass spectrometry) in Jurkat cell lysate. Type of assay: binding. To be noted: 1 hour at rt, 7-point dose response. The essentials:
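Cysteine engagement was read by targeted TMT MS3 of the IA-DTB-labelled, streptavidin-enriched C242 tryptic peptide. Beforehand, Jurkat lysate was exposed to a 7-point 1:5 compound series for 1 h at rt, then to 200 μM IA-DTB for 1 h. Reporter S/N curves gave TE50.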

T2 sequence (P42336 whole entry): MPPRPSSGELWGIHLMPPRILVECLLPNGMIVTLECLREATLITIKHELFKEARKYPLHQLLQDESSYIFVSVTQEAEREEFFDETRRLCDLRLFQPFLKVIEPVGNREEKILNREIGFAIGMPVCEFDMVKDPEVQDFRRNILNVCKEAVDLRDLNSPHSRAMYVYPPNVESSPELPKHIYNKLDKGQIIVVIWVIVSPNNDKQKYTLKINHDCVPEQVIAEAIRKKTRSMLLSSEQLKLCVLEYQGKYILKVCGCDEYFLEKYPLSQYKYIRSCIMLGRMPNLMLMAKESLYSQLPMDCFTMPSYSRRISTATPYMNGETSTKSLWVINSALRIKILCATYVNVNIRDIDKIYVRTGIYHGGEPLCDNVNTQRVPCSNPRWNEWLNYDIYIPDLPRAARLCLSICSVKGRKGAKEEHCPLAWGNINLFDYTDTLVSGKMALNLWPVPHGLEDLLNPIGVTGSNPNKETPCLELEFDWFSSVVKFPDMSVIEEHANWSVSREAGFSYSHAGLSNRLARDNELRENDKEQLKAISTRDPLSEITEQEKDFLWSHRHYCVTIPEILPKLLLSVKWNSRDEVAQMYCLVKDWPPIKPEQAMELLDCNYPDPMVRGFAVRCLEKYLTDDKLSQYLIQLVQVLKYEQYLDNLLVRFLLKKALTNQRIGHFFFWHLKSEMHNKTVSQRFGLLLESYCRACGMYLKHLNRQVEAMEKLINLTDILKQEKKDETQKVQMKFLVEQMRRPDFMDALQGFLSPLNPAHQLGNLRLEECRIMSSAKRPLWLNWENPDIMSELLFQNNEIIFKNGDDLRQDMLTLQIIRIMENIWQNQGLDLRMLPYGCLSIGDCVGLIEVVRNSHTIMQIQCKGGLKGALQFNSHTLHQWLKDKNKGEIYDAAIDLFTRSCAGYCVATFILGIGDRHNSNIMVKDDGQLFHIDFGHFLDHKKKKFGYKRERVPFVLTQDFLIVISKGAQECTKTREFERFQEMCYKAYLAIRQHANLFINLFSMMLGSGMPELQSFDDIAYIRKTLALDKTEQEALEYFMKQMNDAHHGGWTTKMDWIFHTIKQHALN
T2 sequence (P27986 whole entry partner): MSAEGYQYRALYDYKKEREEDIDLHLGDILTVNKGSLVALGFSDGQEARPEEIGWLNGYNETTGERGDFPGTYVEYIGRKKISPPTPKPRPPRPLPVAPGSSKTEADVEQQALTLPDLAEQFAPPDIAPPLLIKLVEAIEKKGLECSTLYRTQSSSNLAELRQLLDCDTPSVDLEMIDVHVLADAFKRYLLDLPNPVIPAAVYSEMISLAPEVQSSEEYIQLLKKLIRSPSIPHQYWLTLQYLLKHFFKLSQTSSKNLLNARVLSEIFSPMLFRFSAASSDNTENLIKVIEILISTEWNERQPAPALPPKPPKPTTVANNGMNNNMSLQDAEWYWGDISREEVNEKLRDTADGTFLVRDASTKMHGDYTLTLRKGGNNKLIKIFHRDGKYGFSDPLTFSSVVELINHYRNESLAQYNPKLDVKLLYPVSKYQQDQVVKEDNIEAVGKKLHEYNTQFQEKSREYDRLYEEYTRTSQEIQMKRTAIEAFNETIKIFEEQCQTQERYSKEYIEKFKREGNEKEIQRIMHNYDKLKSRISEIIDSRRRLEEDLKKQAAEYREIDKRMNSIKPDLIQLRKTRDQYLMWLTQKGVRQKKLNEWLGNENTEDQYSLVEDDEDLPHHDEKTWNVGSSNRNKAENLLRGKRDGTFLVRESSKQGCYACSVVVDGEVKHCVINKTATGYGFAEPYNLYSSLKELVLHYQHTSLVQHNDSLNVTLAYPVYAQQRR
T1 sequence (P42336 whole entry): as the sequence (P42336 whole entry) above
T1 sequence (P27986 whole entry partner): as the sequence (P27986 whole entry partner) above

Regarding `C[C@H](/C=C/C(=O)N1CC(F)(F)C1)NC(=O)[C@@]1(F)CCCN(C(=O)c2ccc(Br)cc2-c2ccccc2Cl)CC1` [Compound 243, (R)-1-(5-bromo-2′-chloro-[1,1′-biphenyl]-2-carbonyl)-N-((R,E)-5-(3,3-difluoroazetidin-1-yl)-5-oxopent-3-en-2-yl)-4-fluoroazepane-4-carboxamide], in assay [1], the pIC50 was 6.12 and the Emax stood at 68.7%. In assay [2], the pIC50 is 6.17.

As to `CC(O)c1ccc(S(=O)(=O)N2CC[C@@](F)(C(=O)N[C@H](C)/C=C/C(=O)N3CC(F)(F)C3)C[C@H]2C)c(-c2ccccc2Cl)c1` (mixture of isomers) [Compound 252, (2R,4S)-1-((2′-chloro-5-((RS)-1-hydroxyethyl)-[1,1′-biphenyl]-2-yl)sulfonyl)-N-((R,E)-5-(3,3-difluoroazetidin-1-yl)-5-oxopent-3-en-2-yl)-4-fluoro-2-methylpiperidine-4-carboxamide], in assay [1], the pIC50 was 6.60 and the Emax was 85.8%. The pIC50 in assay [2] is 6.55.

As for `[2H]C([2H])([2H])Oc1ccc(S(=O)(=O)N2CC[C@@](F)(C(=O)N[C@H](C)/C=C/C(=O)N3CC(F)(F)C3)C[C@H]2C)c(-c2ccccc2Cl)c1` [Compound 300, (2R,4S)-1-((2′-chloro-5-(methoxy-d3)-[1,1′-biphenyl]-2-yl)sulfonyl)-N-((R,E)-5-(3,3-difluoroazetidin-1-yl)-5-oxopent-3-en-2-yl)-4-fluoro-2-methylpiperidine-4-carboxamide], in assay [1], the pIC50 was 6.38 and the Emax was determined as 94.2%. The pIC50 in assay [2] was 6.51.

In the case of `CS(=O)(=O)/C=C\[C@H](CC(F)(F)F)NC(=O)C1(F)CCN(S(=O)(=O)c2ccc(Br)cc2-c2ccccc2Cl)CC1` (single isomer, unassigned) [Compound 240, (*S,Z)-1-((5-bromo-2′-chloro-[1,1′-biphenyl]-2-yl)sulfonyl)-4-fluoro-N-(5,5,5-trifluoro-1-(methylsulfonyl)pent-1-en-3-yl)piperidine-4-carboxamide], the results for the pIC50 in assay [1] and in assay [2] were 6.36 and 6.92, respectively.

In the case of `CC(C)(/C=C/C(=O)N1CC(F)(F)C1)NC(=O)C1(F)CCN(S(=O)(=O)c2ccc(C(F)(F)F)cc2-c2ccccc2Cl)CC1` [Compound 249, (E)-1-((2′-chloro-5-(trifluoromethyl)-[1,1′-biphenyl]-2-yl)sulfonyl)-N-(5-(3,3-difluoroazetidin-1-yl)-2-methyl-5-oxopent-3-en-2-yl)-4-fluoropiperidine-4-carboxamide], the pIC50 in assay [1] is 5.92; in assay [2], 6.21. Also, in assay [1], the Emax came out at 82.8%.

As for `C[C@H](/C=C\S(C)(=O)=O)NC(=O)[C@@]1(F)CCCN(C(=O)[C@H]2CN(CC(C)(F)F)C[C@H]2c2ccccc2Cl)CC1` [Compound 180, (R)-1-((3R,4R)-4-(2-chlorophenyl)-1-(2,2-difluoropropyl)pyrrolidine-3-carbonyl)-4-fluoro-N-((R,Z)-4-(methylsulfonyl)but-3-en-2-yl)azepane-4-carboxamide], the values for the pIC50 in assay [1] and in assay [2] were 6.87 and 6.90, respectively. Moreover, the Emax in assay [1] stood at 96.9%.

`C[C@H](/C=C\S(C)(=O)=O)NC(=O)[C@@]1(F)CCCN(C(=O)[C@H]2CN(CC(F)(F)F)C[C@H]2c2cc(F)ccc2Cl)CC1` (single isomer, unassigned) [Compound 166, (R)-1-((3*R,4*R)-4-(2-chloro-5-fluorophenyl)-1-(2,2,2-trifluoroethyl)pyrrolidine-3-carbonyl)-4-fluoro-N-((R,Z)-4-(methylsulfonyl)but-3-en-2-yl)azepane-4-carboxamide]: the pIC50 in assay [1] is 6.73; in assay [2] it was 6.52. Besides, the Emax in assay [1] worked out at 78.9%.

For the compound `C[C@@H](/C=C\S(C)(=O)=O)NC(=O)C1(F)CCN(S(=O)(=O)c2cnc(C(F)(F)F)cc2-c2cccc(F)c2Cl)CC1` [Compound 210, (S,Z)-1-((4-(2-chloro-3-fluorophenyl)-6-(trifluoromethyl)pyridin-3-yl)sulfonyl)-4-fluoro-N-(4-(methylsulfonyl)but-3-en-2-yl)piperidine-4-carboxamide], the pIC50 in assay [1] was 6.67; in assay [2], 6.96.

For `C[C@H](/C=C/C(=O)N1CC(F)(F)C1)NC(=O)[C@]1(F)CCN(S(=O)(=O)c2ccc(OC(F)F)cc2-c2ccccc2Cl)[C@H](C)C1` [Compound 251, (2R,4S)-1-((2′-chloro-5-(difluoromethoxy)-[1,1′-biphenyl]-2-yl)sulfonyl)-N-((R,E)-5-(3,3-difluoroazetidin-1-yl)-5-oxopent-3-en-2-yl)-4-fluoro-2-methylpiperidine-4-carboxamide], the pIC50 was 6.60 in assay [1] and 6.59 in assay [2]. Also, the Emax in assay [1] came to 102%.

Turning to `C[C@@H](/C=C\S(C)(=O)=O)NC(=O)C1(F)CCN(S(=O)(=O)c2ccc(Br)cc2-c2ccccc2Cl)CC1` [Compound 62, (S,Z)-1-((5-bromo-2′-chloro-[1,1′-biphenyl]-2-yl)sulfonyl)-4-fluoro-N-(4-(methylsulfonyl)but-3-en-2-yl)piperidine-4-carboxamide], in assay [1], the pIC50 was 7.56 and the Emax was found to be 85.2%.

As for `COc1ccc(S(=O)(=O)N2CCC(F)(C(=O)N[C@H](C)/C=C\S(C)(=O)=O)CC2)c(-c2ccccc2C)c1` [Compound 24, (R,Z)-4-fluoro-1-((5-methoxy-2′-methyl-[1,1′-biphenyl]-2-yl)sulfonyl)-N-(4-(methylsulfonyl)but-3-en-2-yl)piperidine-4-carboxamide], the pIC50 in assay [2] is 6.77; in assay [3], 6.63.

Turning to `Cc1ccccc1-c1cc(C(C)C)ccc1S(=O)(=O)N1CCC(F)(C(=O)N[C@H](C)/C=C\S(C)(=O)=O)CC1` [Compound 115, (R,Z)-4-fluoro-1-((5-isopropyl-2′-methyl-[1,1′-biphenyl]-2-yl)sulfonyl)-N-(4-(methylsulfonyl)but-3-en-2-yl)piperidine-4-carboxamide], the figures for the pIC50 in assay [2] and in assay [3] were 6.28 and 6.39, respectively.

For `C[C@H](/C=C\S(C)(=O)=O)NC(=O)C1(F)CCN(S(=O)(=O)c2ccc(F)cc2-c2ccccc2Cl)CC1` [Compound 31, (R,Z)-1-((2′-chloro-5-fluoro-[1,1′-biphenyl]-2-yl)sulfonyl)-4-fluoro-N-(4-(methylsulfonyl)but-3-en-2-yl)piperidine-4-carboxamide], the results for the pIC50 in assay [2] and in assay [3] were 6.12 and 6.21, respectively.

As to `C[C@H](/C=C\S(C)(=O)=O)NC(=O)C1(F)CCN(S(=O)(=O)c2ccc(N3CCCC3)cc2-c2ccccc2Cl)CC1` [Compound 119, (R,Z)-1-((2′-chloro-5-(pyrrolidin-1-yl)-[1,1′-biphenyl]-2-yl)sulfonyl)-4-fluoro-N-(4-(methylsulfonyl)but-3-en-2-yl)piperidine-4-carboxamide], the pIC50 in assay [2] was 6.17; in assay [3], 6.34.

Regarding `COc1ccc(S(=O)(=O)N2CCC(F)(C(=O)N[C@@H](C)/C=C\S(C)(=O)=O)CC2)c(-c2ccccc2OC)c1` [Compound 219, (S,Z)-1-((2′,5-dimethoxy-[1,1′-biphenyl]-2-yl)sulfonyl)-4-fluoro-N-(4-(methylsulfonyl)but-3-en-2-yl)piperidine-4-carboxamide], the pIC50 is 6.01 in assay [2] and 5.96 in assay [3].
